Reference: paper PMC7970121, “Combination With Tomatidine Improves the Potency of Posaconazole Against Trypanosoma cruzi” (Frontiers in Cellular and Infection Microbiology, 2021)
Counter-ions that a name gives are not always drawn. Like-named read-outs stand apart in the source and are kept apart here.

Assays:
[1] = Cytotoxicity against L6 cells (resazurin, 72 h); format: cell-based, rat
Procedure: Rat skeletal myoblasts (L6 cell lines) were seeded in 96-well plates (4 × 10^4 cells/well) in 100 μl RPMI 1640 medium supplemented with 10% fetal bovine serum (FBS) and 2 mM L-glutamine. After 24 h incubation the medium was replaced with 100 μl of fresh medium with or without a serial dilution of compound concentrations (eleven three-fold dilution steps). After 72 h of compound exposure, fluorescent dye resazurin (10 μl, 12.5 mg resazurin dissolved in 100 ml water) was added for 2 h and the readings performed at Spectramax Gemini XS microplate fluorometer (Molecular Devices Cooperation, USA), with excitation wavelength of 536 nm and an emission wavelength of 588 nm. Growth was expressed as percentage of the values of solvent-treated controls. The graphics program Softmax Pro (Molecular Devices) was used to construct dose–response curves and calculate EC50 values. Podophyllotoxin (a microtubule destabilizing agent) was used as positive control.

[2] = test system: Trypanosoma cruzi epimastigotes (STIB 980 strain); test: Activity on T. cruzi epimastigotes (resazurin, 72 h); format: cell-based
Procedure: (§1) L6 cells derived from rat skeletal myoblast (ATCC CRL-1458) were used as host cells for T. cruzi using trypomastigotes of Tulahuen C2C4 strain (DTU VI) expressing the β-galactosidase gene (LacZ) ([Buckner et al., 1996]). The cultures were sustained in RPMI-1640 supplemented with 10% inactivated fetal bovine serum (FBS) and […] at 5% CO2 and 37°C. Epimastigote T. cruzi (STIB 980 strain, DTU TcI) were cultivated at 28°C in liver infusion tryptose (LIT) medium supplemented with hemin (2 μg/ml) and 10% FBS and were used in log phase of growth. Bloodstream trypomastigotes (Y strain, DTU II) were isolated from Swiss Webster mice infected at the peak of parasitemia (≥ 2.5 × 10^6/ml), as reported ([Meirelles et al., 1986]).
Epimastigotes (10^7 parasites/ml) were incubated for 72 h at 28°C with serially diluted compound concentrations (eleven 1:3 dilutions) in supplemented LIT medium. Parasite viability and motility were evaluated by direct observation by light microscopy and fluorometric assays performed with resazurin (12.5 mg resazurin dissolved in 100 ml distilled water). After 2–4 h of incubation with resazurin solution, plates were read in Spectramax Gemini XS microplate fluorometer (Molecular Devices Cooperation, USA) using wavelengths of 536 nm (excitation) and 588 nm (emission) ([Räz et al., 1997]). Growth was expressed as percentage of the values of solvent-treated controls. The graphics program Softmax Pro (Molecular Devices) was used to construct dose–response curves and calculate EC50 (half maximal inhibitory concentration) values. Bz was used as reference drug.

[3] = test system: Trypanosoma cruzi intracellular amastigotes (Tulahuen strain in rat L6 myoblasts); test: Activity on T. cruzi intracellular amastigotes in L6 cells (LacZ/CPRG, 96 h); format: cell-based; conditions: for EC50: read-out: Amastigotes (mean ± SD) EC50; for EC90: read-out: Amastigotes (mean ± SD) EC90
Procedure: as §1
Rat skeletal myoblasts (L6 cell lines) were seeded in 96-well plates (10^4 cells/well) in 100 μl RPMI 1640 medium supplemented with 10% fetal bovine serum (FBS) and 2 mM L-glutamine. The medium was removed after 24 h incubation and replaced by 100 μl of fresh medium containing 10^5 LacZ trypomastigotes (Tulahuen DTU VI). After 48 h, the medium was again removed and replaced with or without a serial of compound concentrations (eleven three-fold dilution steps). After 96 h of compound exposure, CPRG/Nonidet (50 μl) substrate was added and the reading performed after 2–6 h at 540 nm in Versamax microplate reader (Molecular Devices Cooperation, USA). Growth was expressed as percentage of the values of solvent-treated controls. The graphics program Softmax Pro (Molecular Devices) was used to construct dose–response curves and calculate EC50 values. Bz was used as reference drug.

[4] = STIB980, STIB 980 strain, 72 h, n = 3, read-out: Epimastigotes (mean ± SD) EC50
[5] = STIB980, STIB 980 strain, 72 h, n = 3, read-out: Epimastigotes (mean ± SD) EC90
[6] = EC50 on mammalian L6 cells versus EC50 on intracellular amastigotes
[7] = Trypanosoma cruzi, TULAHUEN, L6, 96 h, Tulahuen strain in rat L6 myoblasts, 96 h, n = 3
[8] = Trypanosoma cruzi, Tulahuen strain in rat L6 myoblasts, 96 h, n = 3
[9] = rat L6 myoblasts, 72 h, n = 3, read-out: L6 cells (mean ± SD) EC50
[10] = Tulahuen strain in rat L6 myoblasts, 96 h, n = 3
[11] = L6 rat skeletal myoblast cells, rat L6 myoblasts, 72 h, n = 3, read-out: L6 cells (mean ± SD) EC50
[12] = Trypanosoma cruzi, TULAHUEN, L6, 96 h

Compound | EC50 at 72 h ([1]; rat) | EC50 [2, 4] | EC90 [2, 5] | SI (Selectivity Index) [3, 6] | EC50 [3, 7] | EC90 [3, 8] | EC50 at 72 h [1, 9] | EC50 [3, 10] | EC50 at 72 h [1, 11] | SI (Selectivity Index) [3] | EC50 ([2]; STIB980, 72 h, read-out: Epimastigotes (mean ± SD) EC50) | EC90 ([2]; STIB980, 72 h, read-out: Epimastigotes (mean ± SD) EC90) | EC50 [3, 12] | EC90 [3, 12] | EC50 ([3]; Tulahuen strain in rat L6 myoblasts, 96 h, n = 3, listed as RO48-8071)
NC1CN2CCC1CC2 (centres unmarked) [3-Amino quinuclidine dihydrochloride, 3-Amino quinuclidine] | > 502 µM | > 502 µM | > 502 µM | >1.8 | 268 ± 10 µM | 485 ± 28 µM | – | – | – | – | – | – | – | – | –
OCC1C(O)C(O)C(O)CN1CCCCCOCC12CC3CC(CC(C3)C1)C2 (centres unmarked) [AMP-Deoxy nojirimycin, AMP-Deoxynojirimycin] | 40.4 ± 10.9 µM | 158 ± 5.9 µM | 237 ± 2 µM | 1.2 | 34.8 ± 15.1 µM | 66.6 ± 15.4 µM | – | – | – | – | – | – | – | – | –
CN(C)CCC=C1c2ccccc2CCc2ccccc21 [Amitriptyline (hydrochloride), Amitriptyline] | – | 59.9 ± 5.4 µM | 96.8 ± 3.3 µM | 1.4 | 12.2 ± 3.6 µM | 20.9 ± 3 µM | 17.2 ± 1.2 µM | – | – | – | – | – | – | – | –
O=C(Cn1ccnc1[N+](=O)[O-])NCc1ccccc1 [Benznidazole] | > 384 µM | 13.9 ± 2.2 µM | 101 ± 18 µM | >172 | 2.2 µM | 6.61 ± 2.5 µM | – | 2.22 ± 0.98 µM | – | – | – | – | – | – | –
CC(C)(Oc1ccc(CCNC(=O)c2ccc(Cl)cc2)cc1)C(=O)O [Bezafibrate] | – | > 276 µM | > 276 µM | – | 132 ± 38.6 µM | 226 ± 65 µM | – | – | > 276 µM | >2.1 | – | – | – | – | –
S=C(S)OC1CC2CC1C1CCCC21 (centres unmarked) [D609 (potassium salt), D609] | – | 154 ± 32 µM | > 375 µM | – | 99.4 ± 17.6 µM | 198 ± 32 µM | – | – | 247 ± 20 µM | 2.5 | – | – | – | – | –
CCCCCCCCc1ccc(CCC(N)(CO)COP(=O)(O)O)cc1 (centres unmarked) [FTY720 Phosphate, FTY720-P] | 127 ± 22 µM | > 258 µM | > 258 µM | 1.4 | 93.8 ± 3.3 µM | 168 ± 25 µM | – | – | – | – | – | – | – | – | –
CCCCCCCCc1ccc(CCC(N)(CO)CO)cc1 [FTY720] | 0.39 ± 0.1 µM | 7.55 ± 0.4 µM | 11.6 ± 0.3 µM | 0.5 | ≤ 1 µM | 1.84 ± 1.3 µM | – | 0.81 ± 0.5 µM | – | – | – | – | – | – | –
CCCCC(C)C(OC(=O)CC(CC(=O)O)C(=O)O)C(CC(C)CC(O)CCCCC(O)CC(O)C(C)N)OC(=O)CC(CC(=O)O)C(=O)O (centres unmarked) [Fumonisin B1] | – | – | – | >1.8 | – | – | > 92 µM | – | – | – | > 92 µM | > 92 µM | 50.8 ± 5.7 µM | 84 ± 9.1 µM | –
O=C(/C=C/c1ccc(/C=C/C(=O)Nc2ccc(C3=NCCN3)cc2)cc1)Nc1ccc(C2=NCCN2)cc1 [GW4869 (hydrochloride hydrate), GW4869] | – | > 173 µM | > 173 µM | >1.7 | 106 ± 44 µM | > 173 µM | > 173 µM | – | – | – | – | – | – | – | –
CCCCCCC(=O)CCCCCC/C=C/C[C@@H](O)[C@H](O)[C@@](N)(CO)C(=O)O [Myriocin] | – | > 249 µM | > 249 µM | >1.9 | 130 ± 34 µM | 231 ± 25 µM | > 249 µM | – | – | – | – | – | – | – | –
CCCCCCCCCC(=O)NC(CN1CCOCC1)C(O)c1ccccc1 (centres unmarked) [PDMP (hydrochloride), PDMP] | – | 47.9 ± 9.4 µM | 88.7 ± 18 µM | – | 12.5 ± 2.9 µM | 24.6 ± 9 µM | – | – | 33.5 ± 3.1 µM | 2.7 | – | – | – | – | –
C1CN2CCC1CC2 [Quinuclidine hydrochloride, Quinuclidine] | – | > 677 µM | > 677 µM | – | 478 ± 174 µM | > 677 µM | – | – | > 677 µM | >1.4 | – | – | – | – | –
C=CCN(C)CCCCCCOc1ccc(C(=O)c2ccc(Br)cc2)c(F)c1 [Ro48-8071] | 5.7 ± 2.4 µM | 11.6 ± 6.1 µM | 29.4 ± 16.2 µM | 12 | – | 2.5 ± 1.9 µM | – | 0.47 ± 0.09 µM | – | – | – | – | – | – | ≤ 1 µM
Cc1cc2ncc(NC(=O)Nc3ccc(F)cc3F)c(-c3ccccc3Cl)c2cc1C [TMP-153] | 0.12 ± 0.03 µM | 106 ± 27 µM | > 228 µM | 1.4 | – | 3.9 ± 2.1 µM | – | – | – | – | – | – | – | – | –
